Experimental data published in PubChem BioAssay AID1963852 (Molecular Pharmacology Branch, DTP, NCI, 2024).

System: 282377-053-R-J1-PDC complex spheroid viability
Experiment: Anticancer human tumor 282377-053-R-J1-PDC patient-derived colon adenocarcinoma cell line growth inhibition [POLQ]
Conditions: for IC50: curve of first compound; for viability, T/C: stronger effect = lower value
Summary of the method: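 Three-cell-type spheroids modelling solid tumor plus stroma served as the readout system; POL inhibitors were tested individually and in combination, concentration ranges set by clinical Cmax where known.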

[1] = second compound 0.0316 µM, first compound 0.0316 µM
[2] = second compound 0.0316 µM, first compound 0.1 µM
[3] = second compound 0.0316 µM, first compound 0.316 µM
[4] = second compound 0.0316 µM, first compound 1 µM
[5] = second compound 0.0316 µM, first compound 3.16 µM
[6] = second compound 0.0316 µM, first compound 10 µM
[7] = second compound 0.1 µM, first compound 0.0316 µM
[8] = second compound 0.1 µM, first compound 0.1 µM
[9] = second compound 0.1 µM, first compound 0.316 µM
[10] = second compound 0.1 µM, first compound 1 µM
[11] = second compound 0.1 µM, first compound 3.16 µM
[12] = second compound 0.1 µM, first compound 10 µM
[13] = second compound 0.316 µM, first compound 0.0316 µM
[14] = second compound 0.316 µM, first compound 0.1 µM
[15] = second compound 0.316 µM, first compound 0.316 µM
[16] = second compound 0.316 µM, first compound 1 µM
[17] = second compound 0.316 µM, first compound 3.16 µM
[18] = second compound 0.316 µM, first compound 10 µM
[19] = second compound 1 µM, first compound 0.0316 µM
[20] = second compound 1 µM, first compound 0.1 µM
[21] = second compound 1 µM, first compound 0.316 µM
[22] = second compound 1 µM, first compound 1 µM
[23] = second compound 1 µM, first compound 3.16 µM
[24] = second compound 1 µM, first compound 10 µM
[25] = second compound 3.16 µM, first compound 0.0316 µM
[26] = second compound 3.16 µM, first compound 0.1 µM
[27] = second compound 3.16 µM, first compound 0.316 µM
[28] = second compound 3.16 µM, first compound 1 µM
[29] = second compound 3.16 µM, first compound 3.16 µM
[30] = second compound 3.16 µM, first compound 10 µM
[31] = second compound 10 µM, first compound 0.0316 µM
[32] = second compound 10 µM, first compound 0.1 µM
[33] = second compound 10 µM, first compound 0.316 µM
[34] = second compound 10 µM, first compound 1 µM
[35] = second compound 10 µM, first compound 3.16 µM
[36] = second compound 10 µM, first compound 10 µM
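Also: spheroids exposed to compounds for seven days.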
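For viability, T/C in this document: 100% = DMSO vehicle control viability.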

CCc1cc2c(N3CCc4c(cc(Cn5ccnc5)cc4-c4cn(C)nc4C(F)(F)F)C3=O)cc(C)nc2c(OC)n1 + Cc1cccc(N(C)C(=O)C2C(O)CCN2c2nc(C)cc(C(F)(F)F)c2C#N)c1 was tested, and the IC50 (second compound 0.0316 µM) was > 10 µM, the IC50 (second compound 0.1 µM) was > 10 µM and the IC50 (second compound 0.316 µM) was > 10 µM. The IC50 (second compound 1 µM) was > 10 µM, the IC50 (second compound 3.16 µM) was > 10 µM and the IC50 (second compound 10 µM) was > 10 µM. It also gave a viability, T/C [1] of 104%, a viability, T/C [2] of 99.8% and a viability, T/C [3] of 89.7%. The viability, T/C [4] was 103%, the viability, T/C [5] was 108% and the viability, T/C [6] was 134%. It also gave a viability, T/C [7] of 85.9%, a viability, T/C [8] of 102% and a viability, T/C [9] of 91.2%. The viability, T/C [10] was 91.2%, the viability, T/C [11] was 112% and the viability, T/C [12] was 117%. For the same molecule, the viability, T/C [13] was 90.3%, the viability, T/C [14] was 99.8% and the viability, T/C [15] was 111%. For the same molecule, the viability, T/C [16] was 110%, the viability, T/C [17] was 104% and the viability, T/C [18] was 108%. The viability, T/C [19] was 111%, the viability, T/C [20] was 102% and the viability, T/C [21] was 114%. The viability, T/C [22] was 89.9%, the viability, T/C [23] was 108% and the viability, T/C [24] was 107%. The viability, T/C [25] was 110%, the viability, T/C [26] was 99.5% and the viability, T/C [27] was 101%. For the same molecule, the viability, T/C [28] was 93.8%, the viability, T/C [29] was 122% and the viability, T/C [30] was 115%. For the same molecule, the viability, T/C [31] was 96.8%, the viability, T/C [32] was 98.3% and the viability, T/C [33] was 97%. It also gave a viability, T/C [34] of 96.8%, a viability, T/C [35] of 104% and a viability, T/C [36] of 126%.
In the case of COc1ccc([C@@H](O)c2cc(-c3ncnc4cc(N5CCOCC5)ccc34)c(F)cc2Cl)nn1 + Cc1cccc(N(C)C(=O)C2C(O)CCN2c2nc(C)cc(C(F)(F)F)c2C#N)c1, the IC50 (second compound 0.0316 µM) is reported as > 10 µM, the IC50 (second compound 0.1 µM) is reported as > 10 µM and the IC50 (second compound 0.316 µM) is reported as > 10 µM. The IC50 (second compound 1 µM) was > 10 µM, the IC50 (second compound 3.16 µM) was > 10 µM and the IC50 (second compound 10 µM) was > 10 µM. It also gave a viability, T/C [1] of 104%, a viability, T/C [2] of 115% and a viability, T/C [3] of 108%. It also gave a viability, T/C [4] of 103%, a viability, T/C [5] of 78.3% and a viability, T/C [6] of 62.4%. For the same molecule, the viability, T/C [7] was 106%, the viability, T/C [8] was 106% and the viability, T/C [9] was 89.1%. The viability, T/C [10] was 110%, the viability, T/C [11] was 72.2% and the viability, T/C [12] was 75.1%. For the same molecule, the viability, T/C [13] was 110%, the viability, T/C [14] was 90% and the viability, T/C [15] was 97.6%. The viability, T/C [16] was 93.1%, the viability, T/C [17] was 102% and the viability, T/C [18] was 62.2%. The viability, T/C [19] was 111%, the viability, T/C [20] was 80.1% and the viability, T/C [21] was 97.7%. It also gave a viability, T/C [22] of 83.2%, a viability, T/C [23] of 103% and a viability, T/C [24] of 53.1%. It also gave a viability, T/C [25] of 122%, a viability, T/C [26] of 98.9% and a viability, T/C [27] of 108%. For the same molecule, the viability, T/C [28] was 87.8%, the viability, T/C [29] was 101% and the viability, T/C [30] was 68.5%. For the same molecule, the viability, T/C [31] was 87.9%, the viability, T/C [32] was 87.6% and the viability, T/C [33] was 109%. The viability, T/C [34] was 76.6%, the viability, T/C [35] was 64.3% and the viability, T/C [36] was 54.3%.
For O=C(Nc1ccc(O)c(NS(=O)(=O)c2ccc(F)cc2)c1)c1ccc(-c2ccccc2)cc1 + Cc1cccc(N(C)C(=O)C2C(O)CCN2c2nc(C)cc(C(F)(F)F)c2C#N)c1, the IC50 (second compound 0.0316 µM) was > 10 µM, the IC50 (second compound 0.1 µM) was > 10 µM and the IC50 (second compound 0.316 µM) was > 10 µM. The IC50 (second compound 1 µM) was > 10 µM, the IC50 (second compound 3.16 µM) was > 10 µM and the IC50 (second compound 10 µM) was > 10 µM. It also gave a viability, T/C [1] of 122%, a viability, T/C [2] of 119% and a viability, T/C [3] of 98.4%. The viability, T/C [4] was 102%, the viability, T/C [5] was 107% and the viability, T/C [6] was 116%. It also gave a viability, T/C [7] of 106%, a viability, T/C [8] of 117% and a viability, T/C [9] of 99.5%. For the same molecule, the viability, T/C [10] was 108%, the viability, T/C [11] was 124% and the viability, T/C [12] was 118%. The viability, T/C [13] was 104%, the viability, T/C [14] was 107% and the viability, T/C [15] was 106%. The viability, T/C [16] was 103%, the viability, T/C [17] was 116% and the viability, T/C [18] was 120%. The viability, T/C [19] was 106%, the viability, T/C [20] was 110% and the viability, T/C [21] was 99.8%. It also gave a viability, T/C [22] of 109%, a viability, T/C [23] of 117% and a viability, T/C [24] of 119%. The viability, T/C [25] was 112%, the viability, T/C [26] was 118% and the viability, T/C [27] was 104%. For the same molecule, the viability, T/C [28] was 108%, the viability, T/C [29] was 126% and the viability, T/C [30] was 115%. It also gave a viability, T/C [31] of 106%, a viability, T/C [32] of 105% and a viability, T/C [33] of 99.7%. The viability, T/C [34] was 97%, the viability, T/C [35] was 106% and the viability, T/C [36] was 115%.
COc1cccc2c1C(=O)c1c(O)c3c(c(O)c1C2=O)CC(O)(C(=O)CO)CC3OC1CC(N)C(O)C(C)O1 (stereo not drawn) + Nc1ccc(C#CCN(C(=O)Cc2ncc(C(F)(F)F)cc2C(F)(F)F)c2ccc(F)cc2)nn1 was tested, and the IC50 (second compound 0.0316 µM) was 1.96 µM, the IC50 (second compound 0.1 µM) was 2.1 µM and the IC50 (second compound 0.316 µM) was 2.02 µM. It also gave an IC50 (second compound 1 µM) of 1.91 µM, an IC50 (second compound 3.16 µM) of 1.83 µM and an IC50 (second compound 10 µM) of 1.91 µM. For the same molecule, the viability, T/C [1] was 99.2%, the viability, T/C [2] was 98.9% and the viability, T/C [3] was 123%. The viability, T/C [4] was 94.6%, the viability, T/C [5] was 17.8% and the viability, T/C [6] was 3%. The viability, T/C [7] was 107%, the viability, T/C [8] was 108% and the viability, T/C [9] was 110%. It also gave a viability, T/C [10] of 110%, a viability, T/C [11] of 17.6% and a viability, T/C [12] of 2.63%. It also gave a viability, T/C [13] of 92.8%, a viability, T/C [14] of 108% and a viability, T/C [15] of 130%. For the same molecule, the viability, T/C [16] was 103%, the viability, T/C [17] was 15.8% and the viability, T/C [18] was 3.07%. It also gave a viability, T/C [19] of 94.2%, a viability, T/C [20] of 120% and a viability, T/C [21] of 128%. The viability, T/C [22] was 100%, the viability, T/C [23] was 10.8% and the viability, T/C [24] was 4.26%. The viability, T/C [25] was 104%, the viability, T/C [26] was 108% and the viability, T/C [27] was 123%. The viability, T/C [28] was 96%, the viability, T/C [29] was 8.6% and the viability, T/C [30] was 3.58%. For the same molecule, the viability, T/C [31] was 119%, the viability, T/C [32] was 142% and the viability, T/C [33] was 127%. The viability, T/C [34] was 105%, the viability, T/C [35] was 6.84% and the viability, T/C [36] was 3.41%.
